Activity calls are given as the source filed them. No rule for the calls is given here.
Test system: CCRIS mutagenicity, Ames/micronucleus/aberration tests
Assay: CCRIS mutagenicity studies
[1] = Test System: AMES SALMONELLA TYPHIMURIUM, Strain/Indicator: TA100, Metabolic Activation: NONE, Method: STANDARD PLATE
[2] = Test System: AMES SALMONELLA TYPHIMURIUM, Strain/Indicator: TA1535, Metabolic Activation: NONE, Method: PREINCUBATION
[3] = Test System: AMES SALMONELLA TYPHIMURIUM, Strain/Indicator: TA1537, Metabolic Activation: NONE, Method: PREINCUBATION
[4] = Test System: AMES SALMONELLA TYPHIMURIUM, Strain/Indicator: TA98, Metabolic Activation: NONE, Method: STANDARD PLATE
[5] = Test System: AMES SALMONELLA TYPHIMURIUM, Strain/Indicator: TA98, Metabolic Activation: RAT, LIVER, S-9, AROCLOR 1254, Method: STANDARD PLATE
[6] = Test System: AMES SALMONELLA TYPHIMURIUM, Strain/Indicator: TA100, Metabolic Activation: RAT, LIVER, S-9, AROCLOR 1254, Method: STANDARD PLATE

Measured: mutagenic call

C[C@]12CC[C@@H]3c4ccc(O)cc4CC[C@H]3[C@@H]1C[C@@H](O)C2=O
inactive: Test System: Ames Salmonella typhimurium, Strain/Indicator: TA98, Metabolic Activation: None, Method: Standard plate inactive; negative | Test System: Ames Salmonella typhimurium, Strain/Indicator: TA98, Metabolic Activation: Rat, liver, S-9, Method: Standard plate inactive; negative | Test System: Ames Salmonella typhimurium, Strain/Indicator: TA100, Metabolic Activation: None, Method: Standard plate inactive; negative | Test System: Ames Salmonella typhimurium, Strain/Indicator: TA100, Metabolic Activation: Rat, liver, S-9, Method: Standard plate inactive; negative

c1ccc2c(c1)-c1c3ccccc3cc3cc4ccccc4c-2c13
active: Test System: HUMAN H1A1V2 CELLS, Strain/Indicator: TK LOCUS, Metabolic Activation: NONE, Method: SUSPENSION/PLATE active; positive

OCc1ccccc1
inactive: End Point: IN VIVO MICRONUCLEUS, Test System: BONE MARROW POLYCHROMATIC ERYTHROCYTES, Species: MOUSE, Strain/Sex: DDY/MALE, Route: IP inactive; negative | Test System: AMES SALMONELLA TYPHIMURIUM, Strain/Indicator: TA97, Metabolic Activation: NONE, Method: PREINCUBATION inactive; negative | Test System: AMES SALMONELLA TYPHIMURIUM, Strain/Indicator: TA97, Metabolic Activation: RAT, LIVER, S-9, AROCLOR 1254, Method: PREINCUBATION inactive; negative | Test System: AMES SALMONELLA TYPHIMURIUM, Strain/Indicator: TA98, Metabolic Activation: HAMSTER, LIVER, S-9, AROCLOR 1254, Method: PREINCUBATION inactive; negative | Test System: AMES SALMONELLA TYPHIMURIUM, Strain/Indicator: TA98, Metabolic Activation: NONE, Method: PREINCUBATION inactive; negative | Test System: AMES SALMONELLA TYPHIMURIUM, Strain/Indicator: TA98, Metabolic Activation: RAT, LIVER, S-9, AROCLOR 1254, Method: PREINCUBATION inactive; negative | Test System: AMES SALMONELLA TYPHIMURIUM, Strain/Indicator: TA100, Metabolic Activation: HAMSTER, LIVER, S-9, AROCLOR 1254, Method: PREINCUBATION inactive; negative | Test System: AMES SALMONELLA TYPHIMURIUM, Strain/Indicator: TA100, Metabolic Activation: NONE, Method: PREINCUBATION inactive; negative | [1] inactive; negative | Test System: AMES SALMONELLA TYPHIMURIUM, Strain/Indicator: TA100, Metabolic Activation: RAT, LIVER, S-9, AROCLOR 1254, Method: PREINCUBATION inactive; negative | Test System: AMES SALMONELLA TYPHIMURIUM, Strain/Indicator: TA102, Metabolic Activation: NONE, Method: PREINCUBATION inactive; negative | Test System: AMES SALMONELLA TYPHIMURIUM, Strain/Indicator: TA102, Metabolic Activation: RAT, LIVER, S-9, AROCLOR 1254, Method: PREINCUBATION inactive; negative | Test System: AMES SALMONELLA TYPHIMURIUM, Strain/Indicator: TA1535, Metabolic Activation: HAMSTER, LIVER, S-9, AROCLOR 1254, Method: PREINCUBATION inactive; negative | [2] inactive; negative | Test System: AMES SALMONELLA TYPHIMURIUM, Strain/Indicator: TA1535, Metabolic Activation: RAT, LIVER, S-9, AROCLOR 1254, Method: PREINCUBATION inactive; negative | Test System: AMES SALMONELLA TYPHIMURIUM, Strain/Indicator: TA1537, Metabolic Activation: HAMSTER, LIVER, S-9, AROCLOR 1254, Method: PREINCUBATION inactive; negative | [3] inactive; negative | Test System: AMES SALMONELLA TYPHIMURIUM, Strain/Indicator: TA1537, Metabolic Activation: RAT, LIVER, S-9, AROCLOR 1254, Method: PREINCUBATION inactive; negative | Test System: Ames Salmonella typhimurium, Strain/Indicator: TA98, Metabolic Activation: None, Method: Direct plate incorporation inactive; negative | Test System: Ames Salmonella typhimurium, Strain/Indicator: TA98, Metabolic Activation: Rat, liver, S-9, Aroclor 1254, Method: Direct plate incorporation inactive; negative | Test System: Ames Salmonella typhimurium, Strain/Indicator: TA100, Metabolic Activation: None, Method: Direct plate incorporation inactive; negative | Test System: Ames Salmonella typhimurium, Strain/Indicator: TA100, Metabolic Activation: Rat, liver, S-9, Aroclor 1254, Method: Direct plate incorporation inactive; negative | Test System: MOUSE LYMPHOMA, Strain/Indicator: L5178Y (TK+/TK-), Metabolic Activation: RAT, LIVER, S-9, AROCLOR 1254, Method: SUSPENSION/PLATE inactive; negative

COC(=O)Nc1nc2ccc(Sc3ccccc3)cc2[nH]1
inactive: Test System: AMES SALMONELLA TYPHIMURIUM, Strain/Indicator: TA97, Metabolic Activation: NONE, Method: STANDARD PLATE inactive; negative | Test System: AMES SALMONELLA TYPHIMURIUM, Strain/Indicator: TA97, Metabolic Activation: RAT, LIVER, S-9, AROCLOR 1254, Method: STANDARD PLATE inactive; negative | [4] inactive; negative | [5] inactive; negative | [1] inactive; negative | [6] inactive; negative | Test System: AMES SALMONELLA TYPHIMURIUM, Strain/Indicator: TA102, Metabolic Activation: NONE, Method: STANDARD PLATE inactive; negative | Test System: AMES SALMONELLA TYPHIMURIUM, Strain/Indicator: TA102, Metabolic Activation: RAT, LIVER, S-9, AROCLOR 1254, Method: STANDARD PLATE inactive; negative

O=C(O)c1cn(C2CC2)c2c(Cl)c(N3C[C@@H]4CCCN[C@@H]4C3)c(F)cc2c1=O
active: Test System: CHINESE HAMSTER V-79, Strain/Indicator: V-79 (HGPRT)/6-THIOGUANINE, Metabolic Activation: NONE, Method: STANDARD PLATE active; positive | Test System: CHINESE HAMSTER, Strain/Indicator: V-79(HPRT)/6-THIOGUANINE, Metabolic Activation: NONE, Method: SUSPENSION/PLATE active; positive

C[n+]1c2ccccc2cc2cc(N)ccc21
inactive: [2] inactive; negative | Test System: AMES SALMONELLA TYPHIMURIUM, Strain/Indicator: TA1535, Metabolic Activation: RAT, LIVER, S-9, TETRACHLOROBIPHENYL, Method: PREINCUBATION inactive; negative
active: [3] active; positive | Test System: AMES SALMONELLA TYPHIMURIUM, Strain/Indicator: TA1537, Metabolic Activation: RAT, LIVER, S-9, TETRACHLOROBIPHENYL, Method: PREINCUBATION active; positive | Test System: AMES SALMONELLA TYPHIMURIUM, Strain/Indicator: TA1538, Metabolic Activation: NONE, Method: PREINCUBATION active; positive | Test System: AMES SALMONELLA TYPHIMURIUM, Strain/Indicator: TA1538, Metabolic Activation: RAT, LIVER, S-9, TETRACHLOROBIPHENYL, Method: PREINCUBATION active; positive | Test System: AMES SALMONELLA TYPHIMURIUM, Strain/Indicator: TA1977, Metabolic Activation: NONE, Method: PREINCUBATION active; positive | Test System: AMES SALMONELLA TYPHIMURIUM, Strain/Indicator: TA1977, Metabolic Activation: RAT, LIVER, S-9, TETRACHLOROBIPHENYL, Method: PREINCUBATION active; positive | Test System: AMES SALMONELLA TYPHIMURIUM, Strain/Indicator: TA1978, Metabolic Activation: NONE, Method: PREINCUBATION active; positive | Test System: AMES SALMONELLA TYPHIMURIUM, Strain/Indicator: TA1978, Metabolic Activation: RAT, LIVER, S-9, TETRACHLOROBIPHENYL, Method: PREINCUBATION active; positive

CCCCCCCCSCn1cc[n+](C)c1
inactive: [4] inactive; negative | [5] inactive; negative | [1] inactive; negative | [6] inactive; negative | Test System: AMES SALMONELLA TYPHIMURIUM, Strain/Indicator: TA1535, Metabolic Activation: NONE, Method: STANDARD PLATE inactive; negative | Test System: AMES SALMONELLA TYPHIMURIUM, Strain/Indicator: TA1535, Metabolic Activation: RAT, LIVER, S-9, AROCLOR 1254, Method: STANDARD PLATE inactive; negative | Test System: AMES SALMONELLA TYPHIMURIUM, Strain/Indicator: TA1537, Metabolic Activation: NONE, Method: STANDARD PLATE inactive; negative | Test System: AMES SALMONELLA TYPHIMURIUM, Strain/Indicator: TA1537, Metabolic Activation: RAT, LIVER, S-9, AROCLOR 1254, Method: STANDARD PLATE inactive; negative | Test System: AMES SALMONELLA TYPHIMURIUM, Strain/Indicator: TA1538, Metabolic Activation: NONE, Method: STANDARD PLATE inactive; negative | Test System: AMES SALMONELLA TYPHIMURIUM, Strain/Indicator: TA1538, Metabolic Activation: RAT, LIVER, S-9, AROCLOR 1254, Method: STANDARD PLATE inactive; negative
